Tested on: guinea pigs
Assay: Ototoxic drug-induced (kanamycin/furosemide) hearing loss model in vivo, CAP threshold recordings of the auditory nerve
Parameters: species or system guinea pig
Experimental: The inventive compounds were also tested in vivo. In this context, for repeated recording of the Compound Action Potential (CAP) of the auditory nerve, guinea pigs were bilaterally implanted with a permanent gold electrode at the round window niche. The round window is an opening from the middle ear into the inner ear. The gold electrodes were connected to a miniature plug on the skull. During the experiments, audiograms were determined between 0.5 and 45.6 kHz, at a resolution of 8 steps per octave. An automated threshold search algorithm was applied.
After a baseline audiogram was measured, the animals were pretreated with an inventive compound, as an ion channel activator, via local application to the middle ear. The corresponding solution of the inventive compound was removed after an exposure time, e. g. after 2 hours. Then, the middle ear was rinsed and dried out before CAP recordings were performed to assess threshold shifts.
Then, deafness was induced with the Guinea pigs by local application to the middle ear of a mixture of at least one ototoxic agent and at least one inventive compound. E. g. kanamycin, furosemide or mixtures of these compounds can be used as ototoxic agents.
The resulting CAP response thresholds were compared to ears which were exposed to the ototoxic agents alone.
All animals received care in accordance with the standards described by the German ‘Law on Protecting Animals’ (Tierschutzgesetz) and with the European Directive 2010/63/EU for the protection of animals used for experimental purposes. Experiments were approved by the local authorities (Application HN03/15).
All procedures were performed under anesthesia using a mixture of Fentanyl, Midazolam and Medetomidine. During surgery and measurements animals were kept on a 37° C. heating pad. For repeated recording of the Compound Action Potential (CAP) of the auditory nerve, guinea pigs were bilaterally implanted with a permanent gold electrode at the round window (RW) niche connected to a miniature plug on the skull. Audiograms were determined between 0.5 and 45.6 kHz, at a resolution of 8 steps per octave. An automated threshold search algorithm was applied.
After a baseline audiogram was measured, animals were pretreated with an ion channel activator, in this case with ACOU001, via local application to the middle ear. […]
The solution containing ACOU001 was removed after 2 hours and the middle ear rinsed and dried out before CAP recordings were performed to assess threshold shifts. […] After the final measurement on day 21, animals were sacrificed, cochleae fixed by perfusion with 4% paraformaldehyde and prepared for immunohistological analysis to quantify hair cell (HC) protection.

O=C(NCc1ccc(S(F)(F)(F)(F)F)cc1)c1ccc(Cl)s1 [ACOU001, 5-Chloro-N-(4-(pentafluorosulfanyl)benzyl)thiophene-2-carboxamide]
CAP curves (threshold levels) over time after co-treatment (7 and 21 days after kanamycin/furosemide plus compound): shifted to higher threshold levels after seven days but ameliorated after 21 days | reduction of hearing loss compared to the ototoxic drug alone (after 21 days, all frequencies, co-treatment with kanamycin/furosemide): 25-40 dB SPL | CAP-threshold loss after pretreatment (day 0, 2 hours local application to the middle ear, compared to baseline CAP-thresholds in untreated ears): small, most likely conductive, hearing loss | reduction of hearing loss compared to the ototoxic drug alone (day 0, mid to high frequencies (5-11 kHz), 100 μM with 200 mg/ml kanamycin, 50 mg/ml furosemide, local to middle ear): ~25 dB SPL

Source: patent US11884642B2, “Compounds useful as potassium channel openers” (ACOUSIA THERAPEUTICS GMBH, priority 2017, dated 2024)
